# According to patent publication US8163702B2, “Treatment of melanoma” (SciClone Pharmaceuticals, Inc., priority 2006, dated 2012):
# Several values for one entry are separate records, joined by “and”; a condition that tells them apart may be missing. Equal entries are not always repeated.
# Tested on: murine B16 melanoma
# Experiment: Antitumor effect in murine B16 melanoma model, tumor size and tumor weight (Example 2)
# Format: in vivo, C57BL/6 mice
# Conditions: for Tumor volumes / Tumor measurements L / Tumor measurements W: Day 12; for IR (tumor volume inhibition rate) / Tumor Volume (Mean ± SD) / Tumor volumes (cm^3) on Day 15 / Tumor measurements (cm) on Day 15, L / Tumor measurements (cm) on Day 15, W: Day 15; for IR (inhibition rate of tumor weight) / Tumor Weight (Mean ± SD) / Tumor weights (g) on Day 17: Day 17; for Tumor volumes (cm^3) on Day 15: Length × Width × Width/2; for Tumor volumes (cm^3) on Day 15 / Tumor measurements (cm) on Day 15, L / Tumor measurements (cm) on Day 15, W / Tumor weights (g) on Day 17: individual animals F1-F5, M1-M5
# Description: As per aseptic tissue culture procedures, one vial of B16 melanoma cells (supplied by Cell Culture Center of CAMS) was thawed and centrifuged at 1000 rpm, 20-25° C. for 5 minutes. The cell pellets were suspended in 0.1-0.5 mL normal saline (NS) and subcutaneously injected into the right axilla of each mouse (approximately 1×10^6 cells/mouse). When the tumor diameter was 1 cm approximately (measured by vernier caliper), the animals were euthanized with CO2 asphyxiation and the tumor was excised. Tumor cells were suspended in normal saline as previously described and the cell adaptation cycle was repeated once.
# On Day 0, 1×10^6 B16 cells in a volume of 0.1 mL normal saline were subcutaneously injected into the right axillary area of the mouse. The day of tumor inoculation was defined as Day 0.
# Dosing was initiated on Day 1.
# Observations were recorded daily for mortality and moribundity. […] The tumors were excised, separated, and weighed.
# Tumor volume was calculated using the following formula: Tumor Volume=Length×Width×Width/2 Tumor volume inhibition rate (IR) was calculated according to the formula: IR(TV)=(TVvehicle−TVdrug treated)/TVvehicle×100% TV is the tumor volume on the day of measurement.
# The antitumor effect of the test article was also evaluated by tumor weight. The tumor weight of each mouse was recorded after euthanasia, and the inhibition rate of tumor weight was calculated according to the formula: IR(TW)=(Tumor weightvehicle−Tumor weightdrug treated)/Tumor weightvehicle×100%
# [1] = SCV-07 0.01 mg/kg (Group 3), 0.01 mg/kg, female animals
# [2] = SCV-07 0.01 mg/kg (Group 3), 0.01 mg/kg, male animals
# [3] = SCV-07 0.01 mg/kg (Group 3), 0.01 mg/kg
# [4] = SCV-07 0.1 mg/kg (Group 4), 0.1 mg/kg, female animals
# [5] = SCV-07 0.1 mg/kg (Group 4), 0.1 mg/kg, male animals
# [6] = SCV-07 0.1 mg/kg (Group 4), 0.1 mg/kg
# [7] = SCV-07 1.0 mg/kg (Group 5), 1 mg/kg, female animals
# [8] = SCV-07 1.0 mg/kg (Group 5), 1 mg/kg, male animals
# [9] = SCV-07 1.0 mg/kg (Group 5), 1 mg/kg
# [10] = SCV-07 5.0 mg/kg (Group 6), 5 mg/kg, female animals
# [11] = SCV-07 5.0 mg/kg (Group 6), 5 mg/kg, male animals
# [12] = SCV-07 5.0 mg/kg (Group 6), 5 mg/kg
compound,measurement,setting,value
"N[C@H](CCC(=O)N[C@@H](Cc1c[nH]c2ccccc12)C(=O)O)C(=O)O [SCV-07, γ-D-glutamyl-L-tryptophan]",Tumor volumes,"mouse M3, SCV-07 0.1 mg/kg sc",0.67 cm^3
same,Tumor measurements L,"mouse M3, SCV-07 1.0 mg/kg sc",0.7 cm
same,Tumor measurements W,"mouse M3, SCV-07 1.0 mg/kg sc",0.7 cm
same,Tumor volumes,"mouse M3, SCV-07 1.0 mg/kg sc",0.17 cm^3
same,Tumor measurements L,"mouse M3, SCV-07 5.0 mg/kg sc",0.9 cm
same,Tumor measurements W,"mouse M3, SCV-07 5.0 mg/kg sc",0.9 cm
same,Tumor volumes,"mouse M3, SCV-07 5.0 mg/kg sc",0.36 cm^3
same,Tumor measurements L,"mouse M4, SCV-07 0.01 mg/kg sc",1.0 cm
same,Tumor measurements W,"mouse M4, SCV-07 0.01 mg/kg sc",1.0 cm
same,Tumor volumes,"mouse M4, SCV-07 0.01 mg/kg sc",0.50 cm^3
same,Tumor measurements L,"mouse M4, SCV-07 0.1 mg/kg sc",1.0 cm
same,Tumor measurements W,"mouse M4, SCV-07 0.1 mg/kg sc",0.9 cm
same,Tumor volumes,"mouse M4, SCV-07 0.1 mg/kg sc",0.41 cm^3
same,Tumor measurements L,"mouse M4, SCV-07 1.0 mg/kg sc",1.0 cm
same,Tumor measurements W,"mouse M4, SCV-07 1.0 mg/kg sc",0.7 cm
same,Tumor volumes,"mouse M4, SCV-07 1.0 mg/kg sc",0.25 cm^3
same,Tumor measurements L,"mouse M4, SCV-07 5.0 mg/kg sc",1.1 cm
same,Tumor measurements W,"mouse M4, SCV-07 5.0 mg/kg sc",1.1 cm
same,Tumor volumes,"mouse M4, SCV-07 5.0 mg/kg sc",0.67 cm^3
same,Tumor measurements L,"mouse M5, SCV-07 0.01 mg/kg sc",1.1 cm
same,Tumor measurements W,"mouse M5, SCV-07 0.01 mg/kg sc",1.0 cm
same,Tumor volumes,"mouse M5, SCV-07 0.01 mg/kg sc",0.55 cm^3
same,Tumor measurements L,"mouse M5, SCV-07 0.1 mg/kg sc",0.9 cm
same,Tumor measurements W,"mouse M5, SCV-07 0.1 mg/kg sc",0.9 cm
same,Tumor volumes,"mouse M5, SCV-07 0.1 mg/kg sc",0.36 cm^3
same,Tumor measurements L,"mouse M5, SCV-07 1.0 mg/kg sc",0.8 cm
same,Tumor measurements W,"mouse M5, SCV-07 1.0 mg/kg sc",0.7 cm
same,Tumor volumes,"mouse M5, SCV-07 1.0 mg/kg sc",0.20 cm^3
same,IR (tumor volume inhibition rate),SCV-07 0.01 mg/kg/day sc,15.3%
same,Tumor Volume (Mean ± SD),SCV-07 0.01 mg/kg/day sc,1.642 ± 0.549 cm^3
same,IR (tumor volume inhibition rate),SCV-07 0.1 mg/kg/day sc,7.9%
same,Tumor Volume (Mean ± SD),SCV-07 0.1 mg/kg/day sc,1.786 ± 0.524 cm^3
same,IR (tumor volume inhibition rate),SCV-07 1.0 mg/kg/day sc,16.5%
same,Tumor Volume (Mean ± SD),SCV-07 1.0 mg/kg/day sc,1.617 ± 0.274 cm^3
same,IR (tumor volume inhibition rate),SCV-07 5.0 mg/kg/day sc,30.2%
same,Tumor Volume (Mean ± SD),SCV-07 5.0 mg/kg/day sc,1.353 ± 0.591 cm^3
same,IR (inhibition rate of tumor weight),SCV-07 0.01 mg/kg/day sc,27.5%
same,Tumor Weight (Mean ± SD),SCV-07 0.01 mg/kg/day sc,2.77 ± 0.88 g
same,IR (inhibition rate of tumor weight),SCV-07 0.1 mg/kg/day sc,5.8%
same,Tumor Weight (Mean ± SD),SCV-07 0.1 mg/kg/day sc,3.59 ± 0.62 g
same,IR (inhibition rate of tumor weight),SCV-07 1.0 mg/kg/day sc,23.5%
same,Tumor Weight (Mean ± SD),SCV-07 1.0 mg/kg/day sc,2.92 ± 0.55 g
same,IR (inhibition rate of tumor weight),SCV-07 5.0 mg/kg/day sc,30.8%
same,Tumor Weight (Mean ± SD),SCV-07 5.0 mg/kg/day sc,2.64 ± 1.14 g
same,Tumor volumes (cm^3) on Day 15,[1],1.37 cm^3 and 1.69 cm^3 (3×) and 1.47 cm^3
same,Tumor volumes (cm^3) on Day 15,[2],1.57 cm^3 and 1.69 cm^3 and 3.18 cm^3 and 1.47 cm^3 and 2.05 cm^3
same,"Tumor measurements (cm) on Day 15, L",[3],1.5 cm and 1.8 cm (3×) and 1.4 cm (5×) and 1.3 cm
same,"Tumor measurements (cm) on Day 15, W",[3],1.5 cm (3×) and 1.4 cm (4×) and 1.3 cm (2×) and 1.8 cm
same,Tumor weights (g) on Day 17,[1],1.55 g and 2.04 g and 2.24 g and 3.71 g and 3.21 g
same,Tumor weights (g) on Day 17,[2],2.77 g and 2.80 g and 4.57 g and 2.29 g and 2.50 g
same,Tumor volumes (cm^3) on Day 15,[4],1.18 cm^3 (2×) and 1.69 cm^3 (2×) and 1.80 cm^3
same,Tumor volumes (cm^3) on Day 15,[5],1.69 cm^3 (2×) and 1.77 cm^3 and 1.44 cm^3 and 2.05 cm^3
same,"Tumor measurements (cm) on Day 15, L",[6],1.5 cm (6×) and 2.2 cm and 1.6 cm (2×) and 1.4 cm
same,"Tumor measurements (cm) on Day 15, W",[6],1.4 cm (4×) and 1.7 cm and 1.6 cm and 1.5 cm (4×)
same,Tumor weights (g) on Day 17,[4],2.46 g and 4.08 g and 4.03 g and 3.93 g and 3.52 g
same,Tumor weights (g) on Day 17,[5],3.10 g and 3.73 g and 4.47 g and 2.86 g and 3.74 g
same,Tumor volumes (cm^3) on Day 15,[7],1.10 cm^3 and 1.37 cm^3 and 1.80 cm^3 and 1.35 cm^3 and 1.57 cm^3
same,Tumor volumes (cm^3) on Day 15,[8],1.47 cm^3 (2×) and 2.30 cm^3 and 1.10 cm^3
same,"Tumor measurements (cm) on Day 15, L",[9],1.5 cm (3×) and 1.7 cm and 1.6 cm (2×) and 2 cm and 1.4 cm (2×) and 2.1 cm
same,"Tumor measurements (cm) on Day 15, W",[9],1.5 cm (4×) and 1.3 cm (5×) and 1.6 cm
same,Tumor weights (g) on Day 17,[7],2.69 g and 2.67 g and 4.06 g and 2.66 g and 3.25 g
same,Tumor weights (g) on Day 17,[8],3.58 g and 2.89 g and 2.25 g and 2.55 g and 2.58 g
same,Tumor volumes (cm^3) on Day 15,[10],1.91 cm^3 and 2.56 cm^3 and 1.69 cm^3 and 2.03 cm^3 and 1.57 cm^3
same,Tumor volumes (cm^3) on Day 15,[11],1.37 cm^3 and 2.05 cm^3 (2×) and 2.03 cm^3 and 2.14 cm^3
same,"Tumor measurements (cm) on Day 15, L",[12],1.6 cm (3×) and 1.5 cm (2×) and 1.8 cm and 1.3 cm (2×) and 1.4 cm
same,"Tumor measurements (cm) on Day 15, W",[12],1.4 cm (4×) and 1.6 cm and 1.3 cm (3×) and 1.5 cm
same,Tumor weights (g) on Day 17,[10],1.94 g and 3.15 g and 2.97 g and 2.80 g and 2.85 g
same,Tumor weights (g) on Day 17,[11],4.30 g and 0.15 g and 2.45 g and 3.78 g and 2.02 g
same,B16 melanoma tumor growth,"SCV-07 0.01, 1.0 and 5.0 mg/kg/day sc for 14 days",significantly reduced
